Measured values reported in article PMC10976746 (Molecular Medicine, 2024).
pIC50: −log10 of the molar value.

Columns and labels:
[1] = biological target: T1, Macrophage migration inhibitory factor (MIF) (Homo sapiens, UniProt P14174)
T1 sequence (P14174 2-115): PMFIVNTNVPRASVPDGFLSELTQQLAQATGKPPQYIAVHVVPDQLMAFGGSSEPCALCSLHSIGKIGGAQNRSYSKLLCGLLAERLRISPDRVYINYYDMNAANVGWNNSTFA

murine MIF = murine MIF (Mus musculus, UniProt P34884); assay: dopachrome tautomerase inhibition assay, recombinant mouse MIF; format: biochemical

pIC50 (murine MIF) | Structure (SMILES) | keto-enol tautomerase kinetics (Michaelis-Menten), enol-HPP/borate at 306 nm [1]
– | O=C(O)C(=O)Cc1ccc(O)cc1 [4-HPP, 4-hydroxyphenylpyruvate] | (B) the substrate 4-HPP for MIF-induced keto-enol tautomerization
5.28 | CS(=O)(=O)Nc1cc2occ(NC=O)c(=O)c2cc1Oc1ccccc1 [T-614, iguratimod] | –
